Experimental data reported in US11053204B2, “Pyrimidinyloxy benzene derivatives as herbicides” (FMC Corporation, priority 2015, dated 2021).

Columns and labels:
Format in all cases: in vivo
[1] = system: barnyardgrass (Echinochloa crus-galli); assay: Test A postemergence, visual injury rating; settings: 0 to 100 scale, 0 is no effect, 100 is complete control, approximately 10 days
In short: (§1)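 Visual 0–100 rating (100 = complete control) taken about 10 d post-treatment relative to untreated checks. Preemergence: directed soil spray on sown loam/sand pots. Postemergence: seedlings 2–10 cm, 1–2 leaf. Non-phytotoxic solvent formulation with surfactant.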

[2] = system: blackgrass (Alopecurus myosuroides); assay: Test A postemergence, visual injury rating; settings: 0 to 100 scale, 0 is no effect, 100 is complete control, approximately 10 days
In short: as §1

[3] = system: galium (catchweed bedstraw, Galium aparine); assay: Test A postemergence, visual injury rating; settings: 0 to 100 scale, 0 is no effect, 100 is complete control, approximately 10 days
In short: as §1

corn (Zea mays) = assay: Test C preemergence, plant response rating; settings: Preemergence
In short: (§2)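 Visual injury score, 0 = no effect, 100 = complete control, assigned against untreated controls after 13 to 15 d in the greenhouse. Compounds were applied in a surfactant-containing non-phytotoxic solvent mix, preemergence to seeded loam/sand or silt loam soil, or postemergence to 1- to 4-leaf plants (2 to 18 cm).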

[4] = system: nutsedge, yellow (yellow nutsedge, Cyperus esculentus); assay: Test C preemergence, plant response rating; settings: Preemergence
In short: as §2

[5] = system: morningglory (Ipomoea coccinea); assay: Test C preemergence, plant response rating; settings: Preemergence
In short: as §2

[6] = system: foxtail, giant (giant foxtail, Setaria faberii); assay: Test C preemergence, plant response rating; settings: Preemergence
In short: as §2

[7] = system: oilseed rape (Brassica napus); assay: Test C preemergence, plant response rating; settings: Preemergence
In short: as §2

[8] = system: wheat (winter wheat, Triticum aestivum); assay: Test C preemergence, plant response rating; settings: Preemergence
In short: as §2

[9] = system: ryegrass, Italian (Italian ryegrass, Lolium multiflorum); assay: Test C preemergence, plant response rating; settings: Preemergence
In short: as §2

[10] = system: waterhemp (common waterhemp, Amaranthus rudis); assay: Test C preemergence, plant response rating; settings: Preemergence
In short: as §2

[11] = system: crabgrass, large (large crabgrass, Digitaria sanguinalis); assay: Test C preemergence, plant response rating; settings: Preemergence
In short: as §2

soybean (Glycine max) = assay: Test C preemergence, plant response rating; settings: Preemergence
In short: as §2

[12] = system: velvetleaf (Abutilon theophrasti); assay: Test C preemergence, plant response rating; settings: Preemergence
In short: as §2

[13] = system: ragweed (common ragweed, Ambrosia elatior); assay: Test C preemergence, plant response rating; settings: Preemergence
In short: as §2

[14] = system: blackgrass (Alopecurus myosuroides); assay: Test C preemergence, plant response rating; settings: Preemergence
In short: as §2

[15] = system: lambsquarters (Chenopodium album); assay: Test C preemergence, plant response rating; settings: Preemergence
In short: as §2

Structure (SMILES): FC(F)(F)CCCc1c(Br)cccc1Oc1ncc(Cl)cn1 [Compound 89]
- Barnyardgrass plant response rating ([1]; 31 g ai/ha): 30
- Barnyardgrass plant response rating ([1]; 125 g ai/ha): 90
- Blackgrass plant response rating ([2]; 31 g ai/ha): 20
- Blackgrass plant response rating ([2]; 125 g ai/ha): 60
- Galium plant response rating ([3]; 31 g ai/ha): 30
- Galium plant response rating ([3]; 125 g ai/ha): 80
- Plant response rating, Corn (corn (Zea mays); 125 g ai/ha, scale of 0 to 100): 10
- Plant response rating, Corn (corn (Zea mays); 16 g ai/ha, scale 0 to 100): 0
- Plant response rating, Corn (corn (Zea mays); 31 g ai/ha, scale 0 to 100): 0
- Plant response rating, Corn (corn (Zea mays); 62 g ai/ha, scale 0 to 100): 0
- Plant response rating, Nutsedge, Yellow ([4]; 125 g ai/ha, scale of 0 to 100): 0
- Plant response rating, Nutsedge, Yellow ([4]; 31 g ai/ha, scale 0 to 100): 0
- Plant response rating, Nutsedge, Yellow ([4]; 62 g ai/ha, scale 0 to 100): 0
- Plant response rating, Morningglory ([5]; 125 g ai/ha, scale of 0 to 100): 20
- Plant response rating, Morningglory ([5]; 31 g ai/ha, scale 0 to 100): 0
- Plant response rating, Morningglory ([5]; 62 g ai/ha, scale 0 to 100): 5
- Plant response rating, Foxtail, Giant ([6]; 125 g ai/ha, scale of 0 to 100): 85
- Plant response rating, Foxtail, Giant ([6]; 31 g ai/ha, scale 0 to 100): 5
- Plant response rating, Foxtail, Giant ([6]; 62 g ai/ha, scale 0 to 100): 60
- Plant response rating, Oilseed Rape ([7]; 125 g ai/ha, scale of 0 to 100): 15
- Plant response rating, Oilseed Rape ([7]; 31 g ai/ha, scale 0 to 100): 0
- Plant response rating, Oilseed Rape ([7]; 62 g ai/ha, scale 0 to 100): 0
- Plant response rating, Wheat ([8]; 125 g ai/ha, scale of 0 to 100): 5
- Plant response rating, Wheat ([8]; 31 g ai/ha, scale 0 to 100): 0
- Plant response rating, Wheat ([8]; 62 g ai/ha, scale 0 to 100): 0
- Plant response rating, Ryegrass, Italian ([9]; 125 g ai/ha, scale of 0 to 100): 40
- Plant response rating, Ryegrass, Italian ([9]; 31 g ai/ha, scale 0 to 100): 5
- Plant response rating, Ryegrass, Italian ([9]; 62 g ai/ha, scale 0 to 100): 15
- Plant response rating, Waterhemp ([10]; 125 g ai/ha, scale of 0 to 100): 100
- Plant response rating, Waterhemp ([10]; 31 g ai/ha, scale 0 to 100): 85
- Plant response rating, Waterhemp ([10]; 62 g ai/ha, scale 0 to 100): 100
- Plant response rating, Crabgrass, Large ([11]; 125 g ai/ha, scale of 0 to 100): 98
- Plant response rating, Crabgrass, Large ([11]; 16 g ai/ha, scale 0 to 100): 75
- Plant response rating, Crabgrass, Large ([11]; 31 g ai/ha, scale 0 to 100): 98
- Plant response rating, Crabgrass, Large ([11]; 62 g ai/ha, scale 0 to 100): 100
- Plant response rating, Soybean (soybean (Glycine max); 125 g ai/ha, scale of 0 to 100): 10
- Plant response rating, Soybean (soybean (Glycine max); 31 g ai/ha, scale 0 to 100): 5
- Plant response rating, Soybean (soybean (Glycine max); 62 g ai/ha, scale 0 to 100): 5
- Plant response rating, Velvetleaf ([12]; 125 g ai/ha, scale of 0 to 100): 60
- Plant response rating, Velvetleaf ([12]; 31 g ai/ha, scale 0 to 100): 20
- Plant response rating, Velvetleaf ([12]; 62 g ai/ha, scale 0 to 100): 25
- Plant response rating, Ragweed ([13]; 125 g ai/ha, scale of 0 to 100): 50
- Plant response rating, Ragweed ([13]; 31 g ai/ha, scale 0 to 100): 0
- Plant response rating, Ragweed ([13]; 62 g ai/ha, scale 0 to 100): 5
- Plant response rating, Blackgrass ([14]; 125 g ai/ha, scale of 0 to 100): 90
- Plant response rating, Blackgrass ([14]; 16 g ai/ha, scale 0 to 100): 5
- Plant response rating, Blackgrass ([14]; 31 g ai/ha, scale 0 to 100): 15
- Plant response rating, Blackgrass ([14]; 62 g ai/ha, scale 0 to 100): 85
- Plant response rating, Lambsquarters ([15]; 125 g ai/ha, scale of 0 to 100): 65
- Plant response rating, Lambsquarters ([15]; 31 g ai/ha, scale 0 to 100): 0
- Plant response rating, Lambsquarters ([15]; 62 g ai/ha, scale 0 to 100): 0
